Assay results as given in ChEMBL document CHEMBL4507279, “Data for DCP probe BI-9627” (2021).

Legend:
[1] = test system: Tyrosine-protein kinase ABL1 (Homo sapiens), P00519 [Y253F]; conditions: Compound concentration 1000.0 nM
[2] = biological target: Calcium/calmodulin-dependent protein kinase type II subunit gamma (Homo sapiens) (UniProt Q13555); conditions: Compound concentration 1000.0 nM
[3] = biological target: Serine/threonine-protein kinase Chk1 (Homo sapiens) (UniProt O14757); conditions: Compound concentration 1000.0 nM
Serine/threonine-protein kinase Chk1 (Homo sapiens), sequence (O14757 whole entry): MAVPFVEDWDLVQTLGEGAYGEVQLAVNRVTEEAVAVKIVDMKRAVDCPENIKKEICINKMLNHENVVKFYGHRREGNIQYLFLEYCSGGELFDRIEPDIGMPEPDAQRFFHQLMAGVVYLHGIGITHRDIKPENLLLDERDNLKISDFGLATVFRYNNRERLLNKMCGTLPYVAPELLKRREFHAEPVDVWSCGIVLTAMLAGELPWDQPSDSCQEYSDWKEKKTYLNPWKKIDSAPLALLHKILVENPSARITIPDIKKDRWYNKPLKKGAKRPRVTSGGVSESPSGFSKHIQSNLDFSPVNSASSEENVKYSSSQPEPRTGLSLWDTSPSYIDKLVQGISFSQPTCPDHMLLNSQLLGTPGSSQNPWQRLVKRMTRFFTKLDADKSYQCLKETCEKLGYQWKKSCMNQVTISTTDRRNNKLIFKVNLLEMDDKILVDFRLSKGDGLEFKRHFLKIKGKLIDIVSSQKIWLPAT

[4] = biological target: Macrophage colony-stimulating factor 1 receptor (Homo sapiens) (UniProt P07333); conditions: Compound concentration 1000.0 nM
[5] = biological target: Casein kinase I isoform delta (Homo sapiens) (UniProt P48730); conditions: Compound concentration 1000.0 nM
Casein kinase I isoform delta (Homo sapiens), sequence (P48730 whole entry, looked up, canonical isoform): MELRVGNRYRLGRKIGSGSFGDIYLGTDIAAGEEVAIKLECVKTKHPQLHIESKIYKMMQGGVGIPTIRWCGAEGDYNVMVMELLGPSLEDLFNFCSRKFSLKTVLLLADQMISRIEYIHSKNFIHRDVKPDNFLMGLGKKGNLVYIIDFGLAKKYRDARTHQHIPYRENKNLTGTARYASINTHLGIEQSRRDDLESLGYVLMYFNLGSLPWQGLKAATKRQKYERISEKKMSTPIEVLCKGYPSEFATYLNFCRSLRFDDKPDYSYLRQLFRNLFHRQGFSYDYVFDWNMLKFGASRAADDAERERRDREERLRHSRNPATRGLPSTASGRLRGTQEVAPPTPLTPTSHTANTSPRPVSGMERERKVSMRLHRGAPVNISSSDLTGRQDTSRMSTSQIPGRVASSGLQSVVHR

[6] = biological target: Megakaryocyte-associated tyrosine-protein kinase (Homo sapiens) (UniProt P42679); conditions: Compound concentration 1000.0 nM
[7] = biological target: Serine/threonine-protein kinase DCLK3 (Homo sapiens) (UniProt Q9C098); conditions: Compound concentration 1000.0 nM
Serine/threonine-protein kinase DCLK3 (Homo sapiens), sequence (Q9C098 whole entry): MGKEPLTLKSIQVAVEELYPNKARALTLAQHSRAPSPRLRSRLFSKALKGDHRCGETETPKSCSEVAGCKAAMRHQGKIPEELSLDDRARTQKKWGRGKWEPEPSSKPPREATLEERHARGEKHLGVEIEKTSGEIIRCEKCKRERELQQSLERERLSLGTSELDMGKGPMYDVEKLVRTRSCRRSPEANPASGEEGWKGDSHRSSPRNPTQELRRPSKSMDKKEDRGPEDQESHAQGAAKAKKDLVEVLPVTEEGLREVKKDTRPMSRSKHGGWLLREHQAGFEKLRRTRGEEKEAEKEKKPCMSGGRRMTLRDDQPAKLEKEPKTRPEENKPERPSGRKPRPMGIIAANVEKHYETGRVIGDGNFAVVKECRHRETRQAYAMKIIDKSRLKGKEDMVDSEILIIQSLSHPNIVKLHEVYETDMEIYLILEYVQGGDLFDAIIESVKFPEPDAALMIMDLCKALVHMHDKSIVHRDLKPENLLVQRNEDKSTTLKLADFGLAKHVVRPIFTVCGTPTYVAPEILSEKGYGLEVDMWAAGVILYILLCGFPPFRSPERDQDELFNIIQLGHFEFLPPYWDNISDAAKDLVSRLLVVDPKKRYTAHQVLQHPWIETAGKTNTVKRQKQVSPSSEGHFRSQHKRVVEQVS

[8] = biological target: Myotonin-protein kinase (Homo sapiens) (UniProt Q09013); conditions: Compound concentration 1000.0 nM
[9] = biological target: Dual specificity tyrosine-phosphorylation-regulated kinase 2 (Homo sapiens) (UniProt Q92630); conditions: Compound concentration 1000.0 nM
[10] = test system: Epidermal growth factor receptor (Homo sapiens), P00533 [UNDEFINED MUTATION]; conditions: Compound concentration 1000.0 nM
Epidermal growth factor receptor (Homo sapiens), P00533 [UNDEFINED MUTATION], sequence (P00533 whole entry, looked up, stated change not applied): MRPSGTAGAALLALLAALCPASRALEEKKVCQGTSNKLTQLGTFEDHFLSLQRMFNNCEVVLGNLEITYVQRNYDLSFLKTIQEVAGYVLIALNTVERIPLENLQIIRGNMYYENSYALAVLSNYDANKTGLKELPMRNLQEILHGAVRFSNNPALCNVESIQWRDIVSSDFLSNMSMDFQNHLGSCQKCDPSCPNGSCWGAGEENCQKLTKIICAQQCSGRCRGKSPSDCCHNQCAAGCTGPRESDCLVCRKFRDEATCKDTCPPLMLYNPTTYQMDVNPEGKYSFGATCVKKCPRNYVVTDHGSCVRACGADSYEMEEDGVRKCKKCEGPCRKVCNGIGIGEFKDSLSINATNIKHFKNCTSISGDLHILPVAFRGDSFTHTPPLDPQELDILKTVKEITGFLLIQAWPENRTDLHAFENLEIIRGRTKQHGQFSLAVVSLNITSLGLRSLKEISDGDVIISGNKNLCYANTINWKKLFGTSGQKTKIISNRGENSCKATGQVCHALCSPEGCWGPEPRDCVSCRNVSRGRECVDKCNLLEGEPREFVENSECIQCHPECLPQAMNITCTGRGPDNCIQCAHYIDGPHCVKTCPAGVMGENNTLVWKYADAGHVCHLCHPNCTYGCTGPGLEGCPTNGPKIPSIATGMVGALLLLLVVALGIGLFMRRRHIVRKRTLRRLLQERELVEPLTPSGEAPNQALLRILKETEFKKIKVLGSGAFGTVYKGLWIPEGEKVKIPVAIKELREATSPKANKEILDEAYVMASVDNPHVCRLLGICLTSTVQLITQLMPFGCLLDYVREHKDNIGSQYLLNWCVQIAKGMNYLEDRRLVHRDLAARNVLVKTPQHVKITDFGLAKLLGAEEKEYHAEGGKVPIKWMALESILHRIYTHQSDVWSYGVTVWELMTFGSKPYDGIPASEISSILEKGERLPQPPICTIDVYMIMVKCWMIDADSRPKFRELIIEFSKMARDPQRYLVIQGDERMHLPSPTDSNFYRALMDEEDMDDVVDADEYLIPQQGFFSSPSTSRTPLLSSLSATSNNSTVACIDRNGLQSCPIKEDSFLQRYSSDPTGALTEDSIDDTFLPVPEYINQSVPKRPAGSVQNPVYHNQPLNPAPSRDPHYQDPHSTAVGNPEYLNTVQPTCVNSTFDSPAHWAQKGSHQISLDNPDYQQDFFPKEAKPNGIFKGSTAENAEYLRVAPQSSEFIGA

[11] = test system: Receptor-type tyrosine-protein kinase FLT3 (Homo sapiens), P36888 [D835V]; conditions: Compound concentration 1000.0 nM
[12] = test system: Receptor-type tyrosine-protein kinase FLT3 (Homo sapiens), P36888 [K663Q]; conditions: Compound concentration 1000.0 nM
[13] = test system: Receptor-type tyrosine-protein kinase FLT3 (Homo sapiens), P36888 [R834Q]; conditions: Compound concentration 1000.0 nM
[14] = biological target: Cyclin-G-associated kinase (Homo sapiens) (UniProt O14976); conditions: Compound concentration 1000.0 nM
[15] = biological target: Rhodopsin kinase GRK7 (Homo sapiens) (UniProt Q8WTQ7); conditions: Compound concentration 1000.0 nM
[16] = biological target: Tyrosine-protein kinase HCK (Homo sapiens) (UniProt P08631); conditions: Compound concentration 1000.0 nM
[17] = biological target: Tyrosine-protein kinase JAK1 (Homo sapiens) (UniProt P23458); conditions: Compound concentration 1000.0 nM
[18] = biological target: LIM domain kinase 1 (Homo sapiens) (UniProt P53667); conditions: Compound concentration 1000.0 nM
[19] = biological target: Mitogen-activated protein kinase kinase kinase 9 (Homo sapiens) (UniProt P80192); conditions: Compound concentration 1000.0 nM
[20] = biological target: Serine/threonine-protein kinase 38 (Homo sapiens) (UniProt Q15208); conditions: Compound concentration 1000.0 nM
Serine/threonine-protein kinase 38 (Homo sapiens), sequence (Q15208 2-465 limits assumed): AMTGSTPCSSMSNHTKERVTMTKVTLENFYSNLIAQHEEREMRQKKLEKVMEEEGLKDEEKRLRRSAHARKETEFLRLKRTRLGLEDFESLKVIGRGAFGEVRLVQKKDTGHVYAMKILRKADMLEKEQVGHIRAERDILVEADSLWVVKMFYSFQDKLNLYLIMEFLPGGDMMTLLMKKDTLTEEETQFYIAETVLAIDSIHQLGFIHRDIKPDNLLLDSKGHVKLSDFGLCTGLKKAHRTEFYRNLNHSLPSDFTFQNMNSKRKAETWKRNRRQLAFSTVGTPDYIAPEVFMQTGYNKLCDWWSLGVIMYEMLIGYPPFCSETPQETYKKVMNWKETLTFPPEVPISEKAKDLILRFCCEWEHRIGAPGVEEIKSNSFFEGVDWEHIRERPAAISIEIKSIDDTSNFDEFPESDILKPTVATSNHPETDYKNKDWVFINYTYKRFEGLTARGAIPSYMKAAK

[21] = test system: Phosphatidylinositol 4,5-bisphosphate 3-kinase catalytic subunit alpha isoform (Homo sapiens), P42336 [E545A]; conditions: Compound concentration 1000.0 nM
[22] = biological target: Phosphatidylinositol 4,5-bisphosphate 3-kinase catalytic subunit beta isoform (Homo sapiens) (UniProt P42338); conditions: Compound concentration 1000.0 nM
[23] = biological target: Serine/threonine-protein kinase PknB (Mycobacterium tuberculosis) (UniProt P9WI81); conditions: Compound concentration 1000.0 nM
Serine/threonine-protein kinase PknB (Mycobacterium tuberculosis), sequence (P9WI81 whole entry): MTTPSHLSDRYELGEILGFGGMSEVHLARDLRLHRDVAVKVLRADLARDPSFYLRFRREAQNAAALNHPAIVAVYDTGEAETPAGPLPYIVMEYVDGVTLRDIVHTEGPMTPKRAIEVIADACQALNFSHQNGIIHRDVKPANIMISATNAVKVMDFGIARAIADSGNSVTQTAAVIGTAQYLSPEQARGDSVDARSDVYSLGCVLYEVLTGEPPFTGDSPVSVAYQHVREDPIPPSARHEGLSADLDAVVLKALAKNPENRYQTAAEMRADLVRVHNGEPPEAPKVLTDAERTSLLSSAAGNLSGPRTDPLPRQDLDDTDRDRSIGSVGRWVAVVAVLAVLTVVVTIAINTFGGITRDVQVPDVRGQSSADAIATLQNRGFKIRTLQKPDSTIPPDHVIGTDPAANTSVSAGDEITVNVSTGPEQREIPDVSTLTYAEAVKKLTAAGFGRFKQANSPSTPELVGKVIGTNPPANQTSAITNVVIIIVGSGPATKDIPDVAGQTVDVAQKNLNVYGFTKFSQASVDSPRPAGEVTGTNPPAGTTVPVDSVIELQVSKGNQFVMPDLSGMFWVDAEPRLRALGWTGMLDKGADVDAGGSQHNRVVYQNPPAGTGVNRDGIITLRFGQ

[24] = biological target: Serine/threonine-protein kinase TNNI3K (Homo sapiens) (UniProt Q59H18); conditions: Compound concentration 1000.0 nM
[25] = biological target: Testis-specific serine/threonine-protein kinase 3 (Homo sapiens) (UniProt Q96PN8); conditions: Compound concentration 1000.0 nM
[26] = biological target: Non-receptor tyrosine-protein kinase TYK2 (Homo sapiens) (UniProt P29597); conditions: Compound concentration 1000.0 nM
Non-receptor tyrosine-protein kinase TYK2 (Homo sapiens), sequence (P29597 whole entry): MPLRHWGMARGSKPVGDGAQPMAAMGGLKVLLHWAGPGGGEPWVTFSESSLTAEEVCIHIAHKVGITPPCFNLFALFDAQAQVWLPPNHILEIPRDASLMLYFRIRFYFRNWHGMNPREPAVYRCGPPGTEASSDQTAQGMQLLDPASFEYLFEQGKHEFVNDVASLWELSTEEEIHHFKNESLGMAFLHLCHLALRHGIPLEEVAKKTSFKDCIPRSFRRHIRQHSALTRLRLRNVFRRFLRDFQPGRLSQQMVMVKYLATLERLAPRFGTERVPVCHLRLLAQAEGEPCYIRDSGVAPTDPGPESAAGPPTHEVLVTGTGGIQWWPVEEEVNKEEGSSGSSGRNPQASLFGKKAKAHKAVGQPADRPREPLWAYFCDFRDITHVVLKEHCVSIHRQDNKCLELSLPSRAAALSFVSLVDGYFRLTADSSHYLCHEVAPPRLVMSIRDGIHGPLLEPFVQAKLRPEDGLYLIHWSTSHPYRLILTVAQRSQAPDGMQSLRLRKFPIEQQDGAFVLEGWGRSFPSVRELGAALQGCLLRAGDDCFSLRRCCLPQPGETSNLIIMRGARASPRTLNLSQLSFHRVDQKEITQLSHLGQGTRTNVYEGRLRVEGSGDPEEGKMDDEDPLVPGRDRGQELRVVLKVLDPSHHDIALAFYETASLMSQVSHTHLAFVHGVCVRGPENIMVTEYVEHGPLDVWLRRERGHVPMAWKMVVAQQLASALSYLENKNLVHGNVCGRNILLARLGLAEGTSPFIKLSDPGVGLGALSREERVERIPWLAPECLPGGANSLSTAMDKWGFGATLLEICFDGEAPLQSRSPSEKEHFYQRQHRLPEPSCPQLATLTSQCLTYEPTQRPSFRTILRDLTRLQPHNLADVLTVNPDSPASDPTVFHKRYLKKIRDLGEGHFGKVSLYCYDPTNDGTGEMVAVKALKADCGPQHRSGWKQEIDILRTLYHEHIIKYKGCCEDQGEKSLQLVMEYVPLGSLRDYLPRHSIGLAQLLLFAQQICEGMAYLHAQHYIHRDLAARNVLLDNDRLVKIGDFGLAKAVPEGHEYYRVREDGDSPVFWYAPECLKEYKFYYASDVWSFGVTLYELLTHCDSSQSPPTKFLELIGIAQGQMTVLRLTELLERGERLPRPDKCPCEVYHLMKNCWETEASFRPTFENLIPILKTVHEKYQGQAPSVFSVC

[27] = biological target: Non-receptor tyrosine-protein kinase TYK2 (Homo sapiens) (UniProt P29597); conditions: Compound concentration 1000.0 nM; remark: listed apart in the source
[28] = biological target: Serine/threonine-protein kinase ULK1 (Homo sapiens) (UniProt O75385); conditions: Compound concentration 1000.0 nM
[29] = biological target: 5-hydroxytryptamine receptor 1B (Homo sapiens) (UniProt P28222); conditions: Compound concentration 10.0 uM
[30] = biological target: T1, D(4) dopamine receptor (Homo sapiens) (UniProt P21917); conditions: Compound concentration 10.0 uM
T1 sequence (whole entry): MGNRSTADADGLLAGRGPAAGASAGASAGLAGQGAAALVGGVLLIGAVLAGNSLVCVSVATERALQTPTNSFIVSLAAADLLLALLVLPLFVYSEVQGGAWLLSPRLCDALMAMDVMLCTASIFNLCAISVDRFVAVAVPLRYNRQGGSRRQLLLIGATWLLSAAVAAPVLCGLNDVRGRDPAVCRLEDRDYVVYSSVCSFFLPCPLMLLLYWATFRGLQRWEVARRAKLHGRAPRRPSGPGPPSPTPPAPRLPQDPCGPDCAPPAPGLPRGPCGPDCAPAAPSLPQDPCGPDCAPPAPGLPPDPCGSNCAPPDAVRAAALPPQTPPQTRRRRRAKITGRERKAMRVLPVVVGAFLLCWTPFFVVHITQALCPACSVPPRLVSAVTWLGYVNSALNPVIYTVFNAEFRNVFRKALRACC

[31] = biological target: T2, Alpha-1D adrenergic receptor (Homo sapiens) (UniProt P25100); conditions: Compound concentration 10.0 uM
T2 sequence (whole entry): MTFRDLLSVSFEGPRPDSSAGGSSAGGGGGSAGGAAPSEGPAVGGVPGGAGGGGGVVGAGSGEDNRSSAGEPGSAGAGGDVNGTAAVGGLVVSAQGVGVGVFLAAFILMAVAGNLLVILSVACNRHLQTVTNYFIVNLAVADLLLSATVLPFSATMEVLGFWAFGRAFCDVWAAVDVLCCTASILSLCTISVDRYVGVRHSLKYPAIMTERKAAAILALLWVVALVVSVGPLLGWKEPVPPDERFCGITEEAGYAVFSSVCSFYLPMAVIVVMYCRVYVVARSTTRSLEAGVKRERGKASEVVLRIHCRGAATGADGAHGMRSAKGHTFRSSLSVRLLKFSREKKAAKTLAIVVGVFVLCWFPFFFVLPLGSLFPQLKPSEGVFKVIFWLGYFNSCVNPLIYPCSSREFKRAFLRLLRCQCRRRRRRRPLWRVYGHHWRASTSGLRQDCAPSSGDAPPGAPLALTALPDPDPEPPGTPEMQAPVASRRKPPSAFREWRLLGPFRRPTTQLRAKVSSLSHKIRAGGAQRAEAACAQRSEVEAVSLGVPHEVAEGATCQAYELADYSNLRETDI

CC(=O)N1CCC(c2ccc(C(=O)NC(=N)N)cc2C(F)(F)F)CC1 [BI 9627]
inactive: residual activity [1] 92% | residual activity [2] 100% | residual activity [3] 95% | residual activity [4] 100% | residual activity [5] 100% | residual activity [6] 100% | residual activity [7] 98% | residual activity [8] 100% | residual activity [9] 89% | residual activity [10] 100% | residual activity [11] 92% | residual activity [12] 100% | residual activity [13] 93% | residual activity [14] 100% | residual activity [15] 97% | residual activity [16] 100% | residual activity [17] 100% | residual activity [18] 100% | residual activity [19] 100% | residual activity [20] 96% | residual activity [21] 100% | residual activity [22] 100% | residual activity [23] 100% | residual activity [24] 100% | residual activity [25] 100% | residual activity [26] 100% | residual activity [27] 100% | residual activity [28] 100% | inhibition [29] 14.6% | inhibition [30] -5.7% | inhibition [31] 50%

CC(=O)N1CCC(c2ccc(C(=O)NC3=NCCN3)cc2C(F)(F)F)CC1 [BI 0054]
inactive: residual activity [1] 90% | residual activity [2] 100% | residual activity [3] 100% | residual activity [4] 100% | residual activity [5] 100% | residual activity [6] 100% | residual activity [7] 100% | residual activity [8] 100% | residual activity [9] 93% | residual activity [10] 89% | residual activity [11] 97% | residual activity [12] 100% | residual activity [13] 100% | residual activity [14] 97% | residual activity [15] 87% | residual activity [16] 100% | residual activity [17] 100% | residual activity [18] 100% | residual activity [19] 100% | residual activity [20] 85% | residual activity [21] 100% | residual activity [22] 100% | residual activity [23] 100% | residual activity [24] 98% | residual activity [25] 100% | residual activity [26] 100% | residual activity [27] 100% | residual activity [28] 85% | inhibition [29] 37.8% | inhibition [30] -5.64% | inhibition [31] 50%
